Laboratory results: the supplement of paper PMC10307832

What was measured:
Experiment in all cases: relative viability (nuclei count vs DMSO), 5 days (fraction); higher = more cells survive
[1] = compound: C#Cc1cccc(Nc2ncnc3cc(OC)c(OCCCCCCC(=O)NO)cc23)c1 [CUDC-101] + CC(=O)c1c(C)c2cnc(Nc3ccc(N4CCNCC4)cn3)nc2n(C2CCCC2)c1=O [Palbociclib] (partner 0.5 µM)
Method in brief: (§1)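 Lung cancer cell lines in 1536-well plates were dosed by pin tool the day after seeding, either with one drug alone or with a fixed anchor-drug dose plus five library-drug doses (not always all listed) in √10 steps. After 5 days, cells were fixed and their nuclei stained in one step (final 0.05% Triton X-100, 1% formaldehyde, 1 ug/ml Hoechst), then counted on 4× images. Relative viability is the nuclei count in treated wells divided by that in vehicle wells. Values are medians of duplicate plates.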

[2] = compound: C1=CC=C2C(=C1)N=C(S2)C(C#N)C3=NC(=NC=C3)NCCC4=CN=CC=C4 + Nc1nc2[nH]cc(CCc3ccc(C(=O)N[C@@H](CCC(=O)O)C(=O)O)cc3)c2c(=O)[nH]1 [Pemetrexed] (partner 0.2 µM)
Method in brief: as §1

[3] = compound: C1=CC=C2C(=C1)N=C(S2)C(C#N)C3=NC(=NC=C3)NCCC4=CN=CC=C4 + Cc1nc(Nc2ncc(C(=O)Nc3c(C)cccc3Cl)s2)cc(N2CCN(CCO)CC2)n1 [Dasatinib] (partner 0.075 µM)
Method in brief: as §1

[4] = compound: COc1cc(N2CCC(N3CCN(C)CC3)CC2)ccc1Nc1ncc(Cl)c(Nc2ccccc2S(=O)(=O)C(C)C)n1 [NVP-TAE684] + Cc1nc(NC(=O)N2CCC[C@H]2C(N)=O)sc1-c1ccnc(C(C)(C)C(F)(F)F)c1 [Alpelisib] (partner 2 µM)
Method in brief: as §1

| Cell Line | relative viability ([1]; first compound 0.01 µM) | relative viability ([1]; first compound 0.03162 µM) | relative viability ([1]; first compound 0.1 µM) | relative viability ([1]; first compound 0.3162 µM) | relative viability ([1]; first compound 1 µM) | relative viability ([2]; first compound 0.01581 µM) | relative viability ([2]; first compound 0.1581 µM) | relative viability ([2]; first compound 0.5 µM) | relative viability ([3]; first compound 0.005 µM) | relative viability ([3]; first compound 0.01581 µM) | relative viability ([3]; first compound 0.05 µM) | relative viability ([3]; first compound 0.1581 µM) | relative viability ([3]; first compound 0.5 µM) | relative viability ([2]; first compound 0.005 µM) | relative viability ([4]; first compound 0.2 µM) | relative viability ([4]; first compound 0.6325 µM) | relative viability ([4]; first compound 2 µM) | relative viability ([2]; first compound 0.05 µM) |
| --- | --- | --- | --- | --- | --- | --- | --- | --- | --- | --- | --- | --- | --- | --- | --- | --- | --- | --- |
| NCI-H1648 | 0.243 | 0.273 | 0.256 | 0.27 | 0.211 | 0.682 | 0.673 | 0.652 |  |  |  |  |  |  |  |  |  |  |
| NCI-H1623 |  |  |  |  |  |  |  |  | 0.476 | 0.476 | 0.514 | 0.612 | 0.591 |  |  |  |  |  |
| LU99A | 0.332 | 0.391 | 0.374 | 0.425 | 0.212 | 0.214 | 0.193 | 0.19 | 0.532 | 0.662 | 0.52 | 0.855 | 0.767 | 0.215 | 0.594 | 0.524 | 0.328 |  |
| PC-3 [JPC-3] | 0.465 | 0.574 | 0.493 | 0.527 | 0.481 |  | 1.37 | 0.914 | 0.877 | 1.07 | 0.962 | 1.08 | 0.73 | 1.14 | 0.963 | 1.02 | 0.893 | 1.08 |
| A549 |  |  |  |  |  |  |  |  |  |  |  |  |  |  | 0.823 | 0.58 | 0.253 |  |
| HCC-44 | 1.02 | 0.943 | 0.951 | 0.986 | 1.05 | 0.677 | 0.648 | 0.675 |  |  |  |  |  | 0.723 | 0.835 | 0.784 | 0.313 | 0.668 |
| H3255 | 0.335 | 0.351 | 0.324 | 0.292 | 0.238 | 0.558 | 0.622 | 0.584 | 0.312 | 0.329 | 0.346 | 0.509 | 0.319 | 0.568 | 0.716 | 0.608 | 0.491 | 0.532 |
| LXF-289 | 0.6 | 0.604 | 0.571 | 0.589 | 0.515 | 0.979 | 0.912 | 0.857 | 0.152 | 0.237 | 0.209 | 0.24 | 0.179 | 0.832 | 1.08 | 1.04 |  | 0.876 |
| PC-14 | 0.629 | 0.425 | 0.338 | 0.0958 | 0.0539 | 0.133 | 0.136 | 0.148 | 0.174 | 0.228 | 0.211 | 0.32 | 0.249 | 0.155 | 0.728 | 1.05 | 0.874 | 0.106 |
| NCI-H661 | 0.382 | 0.381 | 0.388 | 0.416 | 0.287 | 0.916 | 0.904 | 0.876 | 0.778 | 0.785 | 0.817 | 0.917 | 0.805 | 0.84 | 0.808 |  | 0.596 | 0.85 |
| EKVX | 0.374 | 0.335 | 0.336 | 0.405 | 0.323 | 0.382 | 0.459 | 0.417 | 0.464 | 0.473 | 0.523 | 0.473 | 0.547 | 0.398 | 0.936 | 0.781 | 0.63 | 0.39 |
| Calu-6 |  |  |  |  |  |  |  |  |  |  |  |  |  |  | 0.854 | 0.912 | 0.517 |  |
| NCI-H1703 |  |  |  |  |  |  |  |  |  |  |  |  |  |  | 0.401 | 0.334 | 0.21 |  |
| NCI-H322M | 0.515 | 0.47 | 0.465 | 0.497 | 0.436 | 0.602 | 0.582 | 0.607 | 0.232 | 0.238 | 0.23 | 0.259 | 0.26 | 0.608 | 0.638 | 0.771 | 0.818 | 0.569 |
| SK-MES-1 | 0.301 | 0.33 | 0.341 | 0.305 | 0.316 | 0.923 | 1.04 | 0.644 | 0.303 | 0.403 | 0.394 | 0.327 | 0.371 | 0.799 | 0.691 | 1 | 0.827 | 0.823 |
| NCI-H1299 |  |  |  |  |  |  |  |  |  |  |  |  |  |  | 0.974 | 1.1 | 0.992 |  |
| NCI-H1355 | 0.392 | 0.429 | 0.399 | 0.376 | 0.37 | 1.01 | 1.13 | 1.02 | 0.674 | 0.66 | 0.699 | 0.772 | 0.478 | 1.05 | 0.721 | 0.928 | 0.473 | 1.02 |
| ChaGo-K-1 | 0.918 | 0.908 | 0.94 | 0.909 | 0.738 | 0.263 | 0.255 | 0.256 |  | 0.567 | 0.577 | 0.681 | 0.545 | 0.249 |  |  |  | 0.293 |
| NCI-H1650 | 0.37 | 0.23 | 0.294 | 0.308 | 0.19 | 0.385 | 0.353 | 0.27 | 0.449 | 0.278 | 0.324 | 0.372 | 0.263 | 0.382 |  |  |  | 0.395 |
| NCI-H727 | 0.642 | 0.61 | 0.563 | 0.714 | 0.57 |  |  |  |  | 0.387 | 0.368 | 0.413 | 0.347 |  | 0.591 | 0.409 | 0.275 |  |
| SW 900 | 0.508 | 0.449 | 0.514 | 0.5 | 0.362 | 0.471 | 0.521 | 0.482 | 0.625 | 0.53 | 0.564 | 0.844 | 0.543 | 0.39 |  |  |  | 0.484 |
| NCI-H522 | 0.96 | 0.795 | 0.876 | 0.985 | 0.741 | 0.698 | 0.807 | 1.03 | 0.873 | 0.822 | 0.884 | 1.05 | 0.935 | 1.22 |  |  |  | 1.01 |
| IA-LM |  |  |  |  |  |  |  |  |  |  |  |  |  |  | 0.588 | 0.55 | 0.431 |  |
| ABC-1 | 0.647 | 0.682 | 0.864 | 0.587 | 0.454 |  |  |  | 0.634 | 0.459 | 0.631 | 0.573 | 0.397 |  | 1.07 |  | 0.537 |  |
